Drawing on patent US20260217687A1 (NeoPhore Limited, priority 2023, published 2026), this text covers IC50 for 22 molecules.

The test deals with T1, recombinant N-terminal MLH1 (residues 15-340) (Homo sapiens, UniProt P40692).
T1 construct: recombinant N-terminal MLH1 (residues 15-340)
T1 sequence (P40692 15-340): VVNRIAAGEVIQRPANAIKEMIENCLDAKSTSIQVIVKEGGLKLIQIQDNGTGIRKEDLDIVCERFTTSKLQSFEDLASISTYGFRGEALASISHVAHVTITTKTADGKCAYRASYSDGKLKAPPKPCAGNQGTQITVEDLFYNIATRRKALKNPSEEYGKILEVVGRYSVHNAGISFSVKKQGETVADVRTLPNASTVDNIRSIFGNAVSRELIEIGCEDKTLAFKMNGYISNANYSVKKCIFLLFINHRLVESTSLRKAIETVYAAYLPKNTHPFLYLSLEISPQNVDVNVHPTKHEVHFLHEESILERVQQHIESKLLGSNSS
Nature of the test: Fluorescence Polarisation Assay for MLH1. The conditions noted are these: 100 nM N-terminal MLH1, 5 nM probe compound. Type of test: binding. A digest of the protocol:
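Fluorescence polarisation displacement: 100 nM MLH1 (15-340) preincubated 30 min at room temperature with compound, then 5 nM rhodamine-labelled probe added and read immediately. Buffer 25 mM HEPES pH 7.5, 250 mM NaCl, 10 mM MgCl2, 0.01% Triton X-100, 5 mM DTT; normalised to no-inhibitor and no-enzyme controls.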

As to `CN(C)Cc1ccc2c(n1)CN(C(=O)c1c(O)cc(C(F)F)cc1OCc1ccccc1)C2` [Example 4.52, (2-(Benzyloxy)-4-(difluoromethyl)-6-hydroxyphenyl)(2-((dimethylamino)methyl)-5,7-dihydro-6H-pyrrolo[3,4-b]pyridin-6-yl)methanone], the IC50 fell in the range of 100 to 1000 nM.

As for `O=C(c1c(O)cc(C(F)F)cc1OCc1ccccc1)N1Cc2ccccc2C1` [Example 4.54, (2-(Benzyloxy)-4-(difluoromethyl)-6-hydroxyphenyl)(isoindolin-2-yl)methanone], the 50% inhibitory concentration (IC50) is 1000 to 10000 nM.

In the case of `CN1CC[C@@H](Oc2ccc3c(c2)CN(C(=O)c2c(O)cc(C(F)F)cc2OCc2ccccc2)C3)C1` [Example 4.55, (R)-(2-(Benzyloxy)-4-(difluoromethyl)-6-hydroxyphenyl)(5-((1-methylpyrrolidin-3-yl)oxy)isoindolin-2-yl)methanone], the IC50 was < 100 nM.

Take `CN1CC(Oc2ccc3c(c2)CN(C(=O)c2c(O)cc(C(F)F)cc2OCc2ccccc2)C3)C1` [Example 4.57, (2-(Benzyloxy)-4-(difluoromethyl)-6-hydroxyphenyl)(5-((1-methylazetidin-3-yl)oxy)isoindolin-2-yl)methanone]: the concentration for half-maximal inhibition (IC50) was < 100 nM.

Take `CN1CCC(Oc2ccc3c(c2)CN(C(=O)c2c(O)cc(C(F)F)cc2OCc2ccccn2)C3)CC1` [Example 4.58, (4-(Difluoromethyl)-2-hydroxy-6-(pyridin-2-ylmethoxy)phenyl)(5-((1-methylpiperidin-4-yl)oxy)isoindolin-2-yl)methanone]: the IC50 is 100 to 1000 nM.

`O=C(c1c(O)cc(C(F)F)cc1OCc1ccccc1)N1Cc2ccc(Oc3ccncc3)cc2C1` [Example 4.60, (2-(Benzyloxy)-4-(difluoromethyl)-6-hydroxyphenyl)(5-(pyridin-4-yloxy)isoindolin-2-yl)methanone]: the half-inhibitory concentration (IC50) lay within 100 to 1000 nM.

As to `O=C(c1c(O)cc(C(F)F)cc1OCc1ccccc1)N1Cc2ccc(Oc3ccncn3)cc2C1` [Example 4.61], the IC50 lay in the range of 100 to 1000 nM.

With `CN1CCC(Oc2cc3c(c(N[C@H]4CCOC4)c2)CN(C(=O)c2c(O)cc(C(F)F)cc2OCc2ccccc2)C3)CC1` [Example 4.62, (S)-(2-(Benzyloxy)-4-(difluoromethyl)-6-hydroxyphenyl)(6-((1-methylpiperidin-4-yl)oxy)-4-((tetrahydrofuran-3-yl)amino)isoindolin-2-yl)methanone], the IC50 was < 100 nM.

Turning to `CN1CCC(Oc2cc3c(c(N[C@@H]4CCOC4)c2)CN(C(=O)c2c(O)cc(C(F)F)cc2OCc2ccccc2)C3)CC1` [Example 4.63, (R)-(2-(Benzyloxy)-4-(difluoromethyl)-6-hydroxyphenyl)(6-((1-methylpiperidin-4-yl)oxy)-4-((tetrahydrofuran-3-yl)amino)isoindolin-2-yl)methanone], the IC50 lay in the range of 100 to 1000 nM.

Take `CN1CC[C@H](Oc2ccc3c(c2)CCN(C(=O)c2c(O)cc(C(F)F)cc2OCc2ccccc2)C3)C1` [Example 4.64, (S)-(2-(Benzyloxy)-4-(difluoromethyl)-6-hydroxyphenyl)(6-((1-methylpyrrolidin-3-yl)oxy)-3,4-dihydroisoquinolin-2(1H)yl)methanone]: the IC50 was 100 to 1000 nM.

Turning to `CN1CC[C@@H](Oc2ccc3c(c2)CCN(C(=O)c2c(O)cc(C(F)F)cc2OCc2ccccc2)C3)C1` [Example 4.65, (R)-(2-(Benzyloxy)-4-(difluoromethyl)-6-hydroxyphenyl)(6-((1-methylpyrrolidin-3-yl)oxy)-3,4-dihydroisoquinolin-2(1H)yl)methanone], the IC50 was 100 to 1000 nM.

For the molecule `CN1CC(Oc2ccc3c(c2)CCN(C(=O)c2c(O)cc(C(F)F)cc2OCc2ccccc2)C3)C1` [Example 4.66, (2-(Benzyloxy)-4-(difluoromethyl)-6-hydroxyphenyl)(6-((1-methylazetidin-3-yl)oxy)-3,4-dihydroisoquinolin-2(1H)-yl)methanone], the 50% inhibitory concentration (IC50) fell in the range of 100 to 1000 nM.

On to `CN1CC[C@@H](Oc2ccc3c(c2)CN(C(=O)c2c(O)cc(C(F)F)cc2OCc2ccccc2)CC3)C1` [Example 4.67, (R)-(2-(Benzyloxy)-4-(difluoromethyl)-6-hydroxyphenyl)(7-((1-methylpyrrolidin-3-yl)oxy)-3,4-dihydroisoquinolin-2(1H)-yl)methanone], for which the IC50 lay within 100 to 1000 nM.

Regarding `CN1CC[C@H](Oc2ccc3c(c2)CN(C(=O)c2c(O)cc(C(F)F)cc2OCc2ccccc2)CC3)C1` [Example 4.68, (S)-(2-(Benzyloxy)-4-(difluoromethyl)-6-hydroxyphenyl)(7-((1-methylpyrrolidin-3-yl)oxy)-3,4-dihydroisoquinolin-2(1H)-yl)methanone], the IC50 lay within 100 to 1000 nM.

On to `CN1CC(Oc2ccc3c(c2)CN(C(=O)c2c(O)cc(C(F)F)cc2OCc2ccccc2)CC3)C1` [Example 4.69, (2-(Benzyloxy)-4-(difluoromethyl)-6-hydroxyphenyl)(7-((1-methylazetidin-3-yl)oxy)-3,4-dihydroisoquinolin-2(1H)-yl)methanone], for which the IC50 lay within 100 to 1000 nM.

On to `O=C(c1c(O)cc(C(F)F)cc1OCc1ccccc1)N1Cc2ccc(OCCN3CCOCC3)cc2C1` [Example 4.70, (2-(Benzyloxy)-4-(difluoromethyl)-6-hydroxyphenyl) (5-(2-morpholinoethoxy)isoindolin-2-yl) methanone], for which the IC50 was 100 to 1000 nM.

Take `CN1CCN(CCOc2ccc3c(c2)CN(C(=O)c2c(O)cc(C(F)F)cc2OCc2ccccc2)C3)CC1` [Example 4.71, (2-(Benzyloxy)-4-(difluoromethyl)-6-hydroxyphenyl) (5-(2-(4-methylpiperazin-1-yl)ethoxy)isoindolin-2-yl) methanone]: the IC50 is 100 to 1000 nM.

In the case of `CN(C)CCOc1cc2c(c(NC3CCCC3)c1)CN(C(=O)c1c(O)cc(C(F)F)cc1OCc1ccccc1)CC2` [Example 4.72, (2-(Benzyloxy)-4-(difluoromethyl)-6-hydroxyphenyl)(8-(cyclopentylamino)-6-(2-(dimethylamino)ethoxy)-3,4-dihydroisoquinolin-2(1H)-yl)methanone], the IC50 is < 100 nM.

`CNc1cc(OCCN(C)C)cc2c1CN(C(=O)c1c(O)cc(C(F)F)cc1OCc1ccccc1)CC2` [Example 4.73, (2-(Benzyloxy)-4-(difluoromethyl)-6-hydroxyphenyl)(6-(2-(dimethylamino)ethoxy)-8-(methylamino)-3,4-dihydroisoquinolin-2(1H)-yl)methanone]: the IC50 is 100 to 1000 nM.

For `CN(C)CCOc1cc2c(c(C(F)F)c1)CN(C(=O)c1c(O)cc(C(F)F)cc1OCc1ccccc1)CC2` [Example 4.74, (2-(Benzyloxy)-4-(difluoromethyl)-6-hydroxyphenyl)(8-(difluoromethyl)-6-(2-(dimethylamino)ethoxy)-3,4-dihydroisoquinolin-2(1H)-yl)methanone], the IC50 is 100 to 1000 nM.

On to `CN(C)CCOc1cc2c(c(N[C@@H]3CCOC3)c1)CN(C(=O)c1c(O)cc(C(F)F)cc1OCc1ccccc1)C2` [Example 4.75, (R)-(2-(Benzyloxy)-4-(difluoromethyl)-6-hydroxyphenyl) (6-(2-(dimethylamino)ethoxy)-4-((tetrahydrofuran-3-yl)amino)isoindolin-2-yl)methanone], for which the IC50 is < 100 nM.

Regarding `CN(C)CCOc1cc2c(c(N[C@H]3CCOC3)c1)CN(C(=O)c1c(O)cc(C(F)F)cc1OCc1ccccc1)C2` [Example 4.76], the IC50 was < 100 nM.
